Measured values taken from US6979447B2, “Immunomodulation and effect on cell processes relating to serotonin family receptors” (Philadelphia Health and Education Corporation, priority 2001, dated 2005).

Columns and labels:
human lymphocytes [1] = test: Human mitogenic (ConA) stimulation, 3H-thymidine incorporation; assay type: cell-based; details: harvested 72 hours
Method: Blood from healthy volunteers was drawn using venipuncture, using Vacutainer collection sets and heparinized collection vials. The blood was diluted 1:1 using HBSS to a total volume of 30 ml in 50 ml conical tubes (Fisher Scientific, Co., Pittsburgh, Pa.). […] Cells from the buffy coats were collected and the residual Histopaque was washed away using repeated centrifugations in HBSS. After washes, cells were resuspended at 5 million cells per ml in RPMI, supplemented with 2% FBS. To remove adherent cells, the suspension was plated onto a 6 well flat-bottom plate (Corning Costar), 3 ml/well, and incubated for 2 hours at 37° C., 5% CO2. Non-adherent cells were harvested after this incubation, were counted and resuspended in RPMI supplemented with 10% human serum (Sigma).
All drugs were pre-plated before the cell suspension was added onto each well of a 96-well round-bottom plate. All experimental conditions were assayed in at least triplicate. Cells suspended in RPMI supplemented with 10% human serum were plated at 100,000 cells per well to a final volume of 200 μl. […] Control samples received no ConA stimulation. The plates were incubated at 37° C. and 5% CO2. One microCurie of tritiated thymidine was added to each well after 60 hours, and the plates were harvested 12 hours later.

human lymphocytes [2] = test: Human mixed lymphocyte reaction (allogeneic stimulation); assay type: cell-based; details: harvested 120 hours
Description: Blood from two healthy, non-related, donors was taken as described above. Peripheral blood mononuclear cells were isolated as described previously elsewhere. The adherent cells were separated from the suspension cells as described previously for both donors. Suspension cells from both donors (donors A and B) were used as responders. The remaining adherent cells from each of the donors were used as stimulators against a different donor (suspension A against adherent B and adherent A against suspension B). The stimulator cells were irradiated at 35 Gy. Drugs were pre-plated onto 96 well, U-bottom plates in triplicate. 200,000 “stimulator” cells in RPMI supplemented with 10% human serum were then plated in each well. 200,000 “responder” cells in the same medium were then plated over stimulators to a final volume of 200 μl/well. Background controls received either no stimulator cells, or no responder cells. The plates were incubated at 37° C. and 5% CO2. 1 μCi of tritiated thymidine was added to each well after 4.5 days, and the plates were harvested 12 hours later.

[3] = tested on: RPMI 8226 multiple myeloma cells; test: RPMI 8226 cell proliferation / viability (trypan blue, MTT, 3H-thymidine); assay type: cell-based, human; details: low dose-titration, FIGS. 23, 24 and 25
Method: The human plasmacytoma (multiple myeloma) cell line, RPMI 8226 (American Type Culture Collection, Manassas, Va.), was cultured in RPMI 1640 supplemented with 10 mM HEPES, 1 mM sodium pyruvate, 4.5 g/L glucose, 1.5 g/L bicarbonate and 20% FBS (non-heat inactivated).
Cell proliferation was assayed by three methods—Trypan Blue Exclusion was used to quantify the number of viable cells in culture; 3-(4,5-dimethylthiazol-2-yl)-2,5-diphenyl tetrazolium bromide (MTT) reduction was used to assay mitochondrial activity (and thus cell viability); and ^3H-Thymidine uptake was employed to assay for active DNA synthesis.
The following 5-HT receptor modulating compounds were tested for their effects on RPMI 8226 cells in vitro cultured at the described densities and across the indicated concentration ranges.

RPMI-8226 cells = test: Hematoxylin-eosin / bis-benzamide staining of RPMI-8226 cytospins; assay type: cell-based, human
Method: 2.0×10^5 RPMI-8226 cells were cultured, in 6-well culture plates, in the presence of the indicated drug concentrations, in a total of 5 mL RPMI-1640 supplemented with 10% FBS. Each well was harvested in its entirety and divided into two identical samples for cytospins.
1.0×10^5 RPMI-8226 cells from each treatment group were loaded into Cyto-funnels and centrifuged at 500 rpm for 4 minutes with medium acceleration. Slides were then fixed through graded methanol in PBS (100%, 5 minutes; 80%, 5 minutes; 50%, 5 minutes), washed for 5 minutes in PBS and stored in PBS at 4° C. until stained.
Cytospun slides were stained with Hematoxylin and Eosin, followed by the nuclear stain, bis-benzamide, rinsed and mounted according to standard staining protocols. Slides were visualized under both brightfield and fluorescent light to generate matched images of the same slide field (see, e.g., FIGS. 28 and 29).

cells = test: Cell morphology change on inhibition of serotonergic signalling; assay type: cell-based; details: after 24 hours of treatment, FIG. 30
Method: Briefly, cells were incubated with a 5-HTR antagonist (e.g., a selective type 1B inhibitor SD 216641) and the effects of treatment were assessed after 24 hours. […] For instance, detection of cell changes can be assessed using optical instruments (electron and light microscopy, as well as fluorescence activated cell sorting, and the like), or any other device that assesses and detects changes in cell size, density, morphology, and the like. Such devices are well known in the art and are not recounted here.

human lymphocytes [4] = test: Viable cell counts (trypan blue) during ConA stimulation of human lymphocytes; assay type: cell-based; details: ConA 10 μg/ml, manual trypan blue counts, FIG. 11
Method: FIG. 11 is a diagram depicting the effect of a 5HT type 1 receptor antagonist and a 5HT type 2 receptor antagonist on the cell numbers occurring during the mitogenic stimulation of human lymphocyte activation. The cells were stimulated with 10 μg/ml ConA. The cells were repurified on a Ficoll gradient prior to addition of the inhibitor. Trypan blue exclusion was used to count the viable cells.
To further assess the effects of propanolol (a general 5-HTR 1 antagonist) and risperidone (a general 5-HTR 2 antagonist) on the mitogenically stimulated lymphocyte culture, the number of viable cells were manually counted as the assay progressed. If the cells were not stimulated, there was no detectable change in the number of viable cells. When the cells were stimulated with ConA, a small lag period was observed and the beginning of the growth phase compared to the stimulation response curve observed in the absence of the inhibitor. […] Apparently, there is no decrease or increase compared with the starting cell numbers. It is unclear whether or not this is due too anergy, an inability to initiate the activation pathway, or both. […] Thus, based on the data presented here, the classes of antagonists that inhibit the type 2 serotonin receptors appear to be rate limiting for the lymphocyte activation processes.

[5] = tested on: allogeneic CTL response to P815 cells; test: Murine allograft model, CTL killing of P815 target cells by splenocytes; assay type: in vivo, C57BL/6J mice; details: tail vein bolus 200 μg/injection on days 6 and 8, sacrificed day 14, FIG. 13
Method: The in vivo validation screen used was an art-recognized murine allogeneic rejection model as described in Zhan et al., 2000. For this assay, a complete MHC miss-match system was employed wherein 5×10^6 P815 cells ([H-2^d] DBA/2 mastocytoma) were injected into the peritoneal cavity of C57BL/6J (H-2^b) mice on day 0 of the experiment. These mice typically generate a strong cytotoxic T lymphocyte (CTL) reaction in response to P815 cells. Following the initial P815 cell inoculation, the mice were allowed to develop a CTL response (this usually takes about 10-14 days). […] Mice were then sacrificed on day 14 of the experiment as indicated in the figures; and the allogeneic CTL response was assayed as described previously (Tretiakova et al., 2000, Nature Biotechnology 18:984-988). The primary spleen cells from the treated and untreated animals were used in the direct CTL readout. Freshly obtained primary spleen cells were incubated with the [^3H] labeled target cells (P815 cells) at 100:1, 50:1, 25:1, and 12.5:1 ratios for 3.5 hours at 37° C. and harvested using a PHD harvester. The percentage of specific killing was determined using the formula % kill=(S−E)/S, where S is the amount of the DNA retained by the target cells in the absence of the effector cells and E is the amount of retained DNA in the presence of the effector cells (expressed in counts per minute; cpm).
This is an art-recognized model of allograft […] rejection based on that described by […]. (2000). In this model, there is a complete MHC mismatch between the P815 cells (H-2^d) and the C57BL6 mouse (H-2^b), thus ensuring an aggressive immune response. The data disclosed in FIG. 13, depicts results of experiments that included 6 treatment groups, each group consisting of three mice. Each mouse received 5×10^6 P815 cells injected into the peritoneal cavity on day 0 of the study. The first group was an untreated control group, which was used to establish the baseline response of the mice against the allogeneic stimulus. These mice, without any further treatments, were sacrificed, as were the other treatment groups, on day 14 of the study and their splenocytes assayed for target-specific killing of the P815 cells.
The average kill observed for the untreated group was about 45% at an effector to target ratio of 100:1. […] The timing of the drug administration was selected to ensure that the T cells were fully activated prior to the drug treatment. The third group was treated with propanolol, a 5HT-1 antagonist. All of the 5HT receptor antagonist-treated groups were treated as described for the risperidone-treated group. The fourth group was treated chronically with CyclosporinA. The Cyclosporin A was administered ip at a dosage of 100 μg/injection starting two days prior to the onset of the study, i.e., at day-2, and the injections were continued on a daily basis for the duration of the study.
Finally, studies conducted in vivo using the CD8-dependent allograft rejection model, in which P815 cells (a rapidly growing cell line taken from a mastocytoma in a DBA mouse), were expanded and used to create a robust rejection response in a C57BL6 mouse. In this study the mice received 5×10^6 P815 cells injected into their peritoneal cavity on day 0 of the study. The first group was an untreated control group (naïve animals), used to acquire the baseline response of the mice against the allogeneic stimulus. The positive controls were treated with the allogeneic cells without any further treatments. These animals were used to assess the induced allogeneic response against the P815 cells.
All treatment groups were sacrificed on day 14 of the study and their splenocytes assayed for target-specific killing of the P815 cells (the averaged overall kill observed for the positive control group was about 45% at an effector to target ratio of 100:1). The serotonin-specific compounds were administered via tail vein injection (300 μg/injection) on days 5 and 7 of the study. […]

SMILES | effect on activation / proliferative response (human lymphocytes [1]; ConA 5 μg/ml, FIGS. 7A, 8A, 9A) | IC50 (human lymphocytes [1]; ConA (5 μg/ml) stimulation of human lymphocytes, FIG. 7A, read-out: apparent IC50) [nM] | effect on activation / proliferative response (human lymphocytes [2]; allogeneic stimulation, FIGS. 7B, 8B, 9B) | IC50 (human lymphocytes [2]; allogeneic stimuli (mixed lymphocyte reaction), FIG. 7B, read-out: apparent IC50) [nM] | effect on growth of RPMI-8226 cells [3] | chromatin / nuclear morphology (RPMI-8226 cells; 50 μM, 9 hour treatment, FIGS. 28, 29) | induction of programmed cell death (RPMI-8226 cells; FIGS. 28 and 29) | change in cell morphology (cells) | effect on number of viable cells (human lymphocytes [4]) | effect on allograft (CTL) response [5]
COc1ccc(NC(=O)c2ccc(-c3ccc(-c4noc(C)n4)cc3C)cc2)cc1OCCN(C)C [SB 216641] | complete inhibition of the activation response | ~200 | complete inhibition of the activation response | ~50 | completely inhibited the growth of the cancer cells | Extensive chromatin condensation and nuclear fragmentation | induced programmed cell death comparable to that induced by the topoisomerase I inhibitor, camptothecin | an increase in cell size |  | 
Cc1nc2n(c(=O)c1CCN1CCC(c3noc4cc(F)ccc34)CC1)CCCC2 [risperidone] |  |  |  |  |  |  |  |  | caused a brief cell increase, followed by the elimination of the cells in culture | inhibited the allograft response to varying degrees
CC(C)NC[C@H](O)COc1cccc2ccccc12 (racemic) [propanolol] |  |  |  |  |  |  |  |  | prevents the cell from growing | did not protect the mice from the allograft rejection response
